For data set [1] the following is noted: Balb/c, mouse, in vivo, po, 10 mg/kg.
A short description of data set [2]: in vivo. The settings on record: Balb/c, mouse, po, 10 mg/kg; for AUC(0-t): AUClast; for half-life: T½.
The nature of data set [3]: Pharmacokinetics in Balb/c mice, single intravenous bolus administration. The format is in vivo. The settings on record: intravenous bolus 1 mg/kg, gender F; for AUC(0-inf) / half-life / Vd: female, mouse, plasma; for AUC(0-inf): read-out: AUCINF_obs; for half-life: read-out: T½ (converted); for Vd: read-out: Vss.
The mark [4] stands for this setting: formulation 10DMI/15EtOH/35PG/40Saline.
The mark [5] stands for this setting: formulation 10DMA/15EtOH/35PEG300/40D5W.

Read-outs that look alike come from different tables or passages of the source.

The term AUC(0-t) denotes the area under the concentration-time curve up to a stated or last time point. A higher AUC(0-t) goes with high exposure. Usually Cmax stands for the highest concentration seen after dosing. For `CC1(c2cccc(F)c2)NC(=O)c2c(Cl)cc(Nc3cc(NC(=O)C4CC4)ncn3)c(=O)n21` (stereo not shown) [Cpd. No. 52, N-[6-[[8-chloro-3-(3-fluorophenyl)-3-methyl-1,5-dioxo-2H-imidazo[1,5-a]pyridin-6-yl]amino]pyrimidin-4-yl]cyclopropanecarboxamide], in data set [1] (female), the AUClast was determined as 22.3 µg·h/mL, the Tlast is reported as 24 h and the T½ came to 3.56 h. Also, in data set [2] (female), the area under the curve AUC(0-t) was 38100 ng·h/mL, the Cmax is 3370 ng/mL and the half-life was 325 min.
In general, Tmax refers to the time at which the peak concentration occurs. Regarding `O=C1NC2(CCC(F)(F)CC2)n2c1c(Cl)cc(Nc1cc(NC(=O)C3CC3)ncn1)c2=O` [Cpd. No. 50, N-[6-[(8-chloro-4′,4′-difluoro-1,5-dioxo-spiro[2H-imidazo[1,5-a]pyridine-3,1′-cyclohexane]-6-yl)amino]pyrimidin-4-yl]cyclopropanecarboxamide], in data set [3] (setting [4]), the AUC(0-inf) worked out at 887 ng·h/mL, the half-life was 148 min, the Vd stood at 3.18 L/kg and the Cl_obs turned out to be 18.8 mL/min/kg. In data set [1] (female), this compound yielded a Tlast of 24 h. Besides, the Tmax in data set [2] (female) came out at 4 h.
In the case of `CC1(CC(F)(F)F)NC(=O)c2c(Cl)cc(Nc3ccncn3)c(=O)n21` (stereo not shown) [Cpd. No. 55, 8-chloro-3-methyl-6-(pyrimidin-4-ylamino)-3-(2,2,2-trifluoroethyl)-2H-imidazo[1,5-a]pyridine-1,5-dione], the Tlast in data set [1] (female) worked out at 24 h. In data set [2] (female), the AUC(0-t) was determined as 56900 ng·h/mL, the peak level (Cmax) was 6170 ng/mL, the Tmax was determined as 1 h and the half-life was 157 min.
For the compound `CC1(C)NC(=O)c2c(Cl)cc(Nc3cc(N)ncn3)c(=O)n21` [Cpd. No. 88, 6-[(6-aminopyrimidin-4-yl)amino]-8-chloro-3,3-dimethyl-2H-imidazo[1,5-a]pyridine-1,5-dione], in data set [3] (setting [5]), the AUC(0-inf) was determined as 273 ng·h/mL, the half-life is 78 min, the Vd came out at 3.03 L/kg and the Cl_obs amounted to 61 mL/min/kg. The same compound registered a Tlast in data set [1] (female) of 8 h. In data set [2] (female), the AUC(0-t) came out at 2040 ng·h/mL, the Cmax came out at 810 ng/mL, the time of peak concentration (Tmax) worked out at 0.5 h and the half-life is 178 min.
On to `Cc1cc(Nc2cc(N)ncn2)c(=O)n2c1C(=O)NC21CCCCC1` [Cpd. No. 107, 6′-((6-aminopyrimidin-4-yl)amino)-8′-methyl-2′H-spiro[cyclohexane-1,3′-imidazo[1,5-a]pyridine]-1′,5′-dione], for which, in data set [3] (setting [5]), the AUC(0-inf) is 502 ng·h/mL, the half-life is 175 min, the Vd was 3.21 L/kg and the Cl_obs is listed as 33.2 mL/min/kg. Besides, in data set [1] (female), the Tlast is recorded as 8 h. For the same compound, in data set [2] (female), the AUC(0-t) worked out at 2760 ng·h/mL, the Cmax was found to be 950 ng/mL, the Tmax was 1 h and the half-life was 318 min.
Turning to `CC1(C2CCCC2)NC(=O)c2ccc(Nc3ccncn3)c(=O)n21` (stereo not shown) [Cpd. No. 9, 3-cyclopentyl-3-methyl-6-(pyrimidin-4-ylamino)-2,3-dihydroimidazo[1,5-a]pyridine-1,5-dione], the Tlast in data set [1] (male) amounted to 8 h. Besides, in data set [2] (male), the AUC(0-t) is 4830 ng·h/mL, the Cmax was 5050 ng/mL, the Tmax came out at 0.5 h and the half-life was 49.9 min.
Consider `Cl.O=C1NC2(CCC(F)(F)CC2)n2c1c(Cl)cc(Nc1ccncn1)c2=O` [Cpd. No. 110, 8-chloro-4′,4′-difluoro-6-(pyrimidin-4-ylamino)spiro[2H-imidazo[1,5-a]pyridine-3,1′-cyclohexane]-1,5-dione hydrochloride], for which, in data set [2] (female), the Cmax was 1700 ng/mL, the Tmax amounted to 0.3 h and the half-life was 156 min.
In data set [1] (female), `CC1(c2cccc(Cl)c2)NC(=O)c2c(Cl)cc(Nc3ccncn3)c(=O)n21` (stereo not shown) [Cpd. No. 58, 8-chloro-3-(3-chlorophenyl)-3-methyl-6-(pyrimidin-4-ylamino)-2H-imidazo[1,5-a]pyridine-1,5-dione] registered a Tlast of 24 h. Besides, in data set [2] (female), the AUC(0-t) amounted to 5430 ng·h/mL, the peak concentration (Cmax) amounted to 690 ng/mL, the Tmax is 2 h and the half-life was 319 min.
For `CC1(C(F)(F)F)NC(=O)c2c(Cl)cc(Nc3ccncn3)c(=O)n21` (stereo not shown) [Cpd. No. 35, 8-chloro-3-methyl-6-(pyrimidin-4-ylamino)-3-(trifluoromethyl)-2H-imidazo[1,5-a]pyridine-1,5-dione], in data set [1] (female), the Tlast amounted to 24 h. Besides, in data set [2] (female), the area under the curve AUC(0-t) turned out to be 71300 ng·h/mL, the peak concentration (Cmax) worked out at 6930 ng/mL, the Tmax stood at 2 h and the half-life was 208 min.
For `O=C1NC2(CCCNC2)n2c1ccc(Nc1ccncn1)c2=O` (stereo not shown) [Cpd. No. 20, 6-(pyrimidin-4-ylamino)-1H-spiro[imidazo[1,5-a]pyridine-3,3′-piperidine]-1,5(2H)-dione], the Tlast in data set [1] (female) came out at 4 h. In data set [2] (female), the AUC(0-t) came out at 2090 ng·h/mL, the highest level (Cmax) was 2240 ng/mL, the Tmax came out at 0.5 h and the half-life is 38.6 min.
Consider `CC1(C)NC(=O)c2c(Cl)cc(Nc3cc(NC(=O)C4CC4)ncn3)c(=O)n21` [Cpd. No. 43, N-[6-[(8-chloro-3,3-dimethyl-1,5-dioxo-2H-imidazo[1,5-a]pyridin-6-yl)amino]pyrimidin-4-yl]cyclopropanecarboxamide], for which the Tlast in data set [1] (female) was determined as 8 h. In data set [2] (female), the AUC(0-t) is 132 ng·h/mL, the highest level (Cmax) was 21.8 ng/mL, the Tmax is 2 h and the half-life is 405 min.
`CC1(C(F)(F)F)NC(=O)c2ccc(Nc3cc(NC(=O)C4CC4)ncn3)c(=O)n21` (stereo not shown) [Cpd. No. 24, N-[6-[[3-methyl-1,5-dioxo-3-(trifluoromethyl)-2H-imidazo[1,5-a]pyridin-6-yl]amino]pyrimidin-4-yl]cyclopropanecarboxamide]: the Tlast in data set [1] (female) is 8 h. In data set [2] (female), the AUC(0-t) was found to be 921 ng·h/mL, the peak level (Cmax) was 192 ng/mL, the Tmax amounted to 2 h and the half-life was 115 min.
Take `CC1(C(F)(F)F)NC(=O)c2ccc(Nc3ccncn3)c(=O)n21` (stereo not shown) [Cpd. No. 14, 3-methyl-6-(pyrimidin-4-ylamino)-3-(trifluoromethyl)-2,3-dihydroimidazo[1,5-a]pyridine-1,5-dione]: the Tlast in data set [1] (male) is reported as 8 h. For the same compound, in data set [2] (male), the AUC(0-t) was 255 ng·h/mL, the concentration peaked (Cmax) at 405 ng/mL and the Tmax was found to be 0.5 h.
In the case of `CC1(CC(F)(F)F)NC(=O)c2ccc(Nc3cc(NC(=O)C4CC4)ncn3)c(=O)n21` (stereo not shown) [Cpd. No. 22, N-(6-((3-methyl-1,5-dioxo-3-(2,2,2-trifluoroethyl)-1,2,3,5-tetrahydroimidazo[1,5-a]pyridin-6-yl)amino)pyrimidin-4-yl)cyclopropanecarboxamide], in data set [1] (female), the Tlast was 8 h. Besides, in data set [2] (female), the exposure AUC(0-t) was 1620 ng·h/mL, the Cmax is 371 ng/mL, the Tmax was found to be 2 h and the half-life is 116 min.
For `O=C1NC2(CCCCC2)n2c1c(Cl)cc(Nc1cc(NC(=O)C3CC3)ncn1)c2=O` [Cpd. No. 45, N-(6-((8′-chloro-1′,5′-dioxo-1′,5′-dihydro-2′H-spiro[cyclohexane-1,3′-imidazo[1,5-a]pyridin]-6′-yl)amino)pyrimidin-4-yl)cyclopropanecarboxamide], the Tlast in data set [1] (female) was 8 h. Besides, in data set [2] (female), the exposure AUC(0-t) was 42.9 ng·h/mL, the concentration peaked (Cmax) at 9.16 ng/mL, the Tmax stood at 2 h and the half-life was 453 min.
On to `Cl.O=C1NC2(CCCNC2)n2c1c(Cl)cc(Nc1ccncn1)c2=O` (stereo not shown) [Cpd. No. 54, 8-chloro-6-(pyrimidin-4-ylamino)spiro[2H-imidazo[1,5-a]pyridine-3,3′-piperidine]-1,5-dione hydrochloride], for which, in data set [2] (female), the peak level (Cmax) was 1050 ng/mL and the time to peak (Tmax) was 0.5 h.
`Cl.O=C1NC2(CCCCC2)n2c1c(Cl)cc(Nc1ccncn1)c2=O` [Cpd. No. 109, 8-chloro-6-(pyrimidin-4-ylamino)spiro[2H-imidazo[1,5-a]pyridine-3,1′-cyclohexane]-1,5-dione hydrochloride]: in data set [2] (female), the Cmax turned out to be 630 ng/mL, the Tmax stood at 0.3 h and the half-life was 150 min.
The compound `CC1(C2CCCC2)NC(=O)c2ccc(Nc3cc(NC(=O)C4CC4)ncn3)c(=O)n21` (stereo not shown) [Cpd. No. 23, N-[6-[(3-cyclopentyl-3-methyl-1,5-dioxo-2H-imidazo[1,5-a]pyridin-6-yl)amino]pyrimidin-4-yl]cyclopropanecarboxamide] registered a Tlast in data set [1] (female) of 8 h. Moreover, in data set [2] (female), the exposure AUC(0-t) is 75.7 ng·h/mL, the Cmax is 17.5 ng/mL, the Tmax was found to be 1 h and the half-life was 209 min.
For `O=C1NC2(CCCC2)n2c1ccc(Nc1cc(NC(=O)C3CC3)ncn1)c2=O` [Cpd. No. 21, N-[6-[(1,5-dioxospiro[2H-imidazo[1,5-a]pyridine-3,1′-cyclopentane]-6-yl)amino]pyrimidin-4-yl]cyclopropanecarboxamide] the same measures were 4 h, 109 ng·h/mL, 50.2 ng/mL, 0.5 h and 160 min.

These data come from patent publication US9669031B2, “MNK inhibitors and methods related thereto” (eFFECTOR Therapeutics, Inc., priority 2014, dated 2017).
